Laboratory results published in US20060069132A1, “Azolecarboxamide herbicides” (priority 2004, published 2006).

Key:
barnyardgrass [1] = assay: Test B flooded paddy test; assay type: in vivo, Echinochloa crus-galli; conditions: 1000 g ai/ha, visual rating, scale 0 to 100 (0 no effect, 100 complete control), 13 to 15 days
In short: (§1)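 Visual control ratings, 0–100 versus untreated controls, taken after 13 to 15 days in the greenhouse. Blackgrass received a postemergence spray at the 1- to 4-leaf stage (2–18 cm); ducksalad, umbrella sedge and barnyardgrass were flooded-paddy treated at 2 leaves.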

giant foxtail [2] = assay: Test A pre-/postemergence herbicide test; assay type: in vivo, Setaria faberi
In short: (§2)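 Visual injury scores on a 0–100 scale (100 = complete control) taken about ten days post-treatment in greenhouse against untreated controls; dash means no result. Treatments: preemergence soil spray and postemergence spray to runoff on one- to two-leaf plants 2 to 10 cm tall, surfactant-containing formulation.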

large crabgrass [3] = assay: Test A pre-/postemergence herbicide test; assay type: in vivo, Digitaria sanguinalis
In short: as §2

barnyardgrass [4] = assay: Test A pre-/postemergence herbicide test; assay type: in vivo, Echinochloa crus-galli
In short: as §2

redroot pigweed = assay: Test A pre-/postemergence herbicide test; assay type: in vivo, Amaranthus retroflexus
In short: as §2

pigweed = assay: Test B pre-/postemergence herbicide test; assay type: in vivo, Amaranthus retroflexus; conditions: for Pigweed plant response rating: postemergence, visual rating, scale 0 (no effect) to 100 (complete control)
In short: (§3)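 Flooded paddy rice and barnyardgrass were treated at the 2-leaf stage; upland plantings received compound either on sown seed or on 1- to 4-leaf seedlings. All were kept 13–15 days in a greenhouse and scored visually, 0–100, relative to untreated plants.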

wild oat = assay: Test B postemergence herbicide test; assay type: in vivo, Avena fatua; conditions: postemergence, visual rating, scale 0 (no effect) to 100 (complete control)
In short: (§4)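 After treating 2-leaf paddy plants or 2–18 cm postemergence plants (1 to 4 leaves) with formulated chemical, researchers kept them in a greenhouse for 13–15 days. Effects were judged visually versus controls: 0 indicates none, 100 total control.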

velvetleaf [5] = assay: Test A pre-/postemergence herbicide test; assay type: in vivo, Abutilon theophrasti
In short: as §2

large crabgrass [6] = assay: Test B pre-/postemergence herbicide test; assay type: in vivo, Digitaria sanguinalis; conditions: for Crabgrass, Large plant response rating: postemergence, visual rating, scale 0 (no effect) to 100 (complete control)
In short: as §3

lambsquarters = assay: Test B pre-/postemergence herbicide test; assay type: in vivo, Chenopodium album; conditions: for Lambsquarters plant response rating: postemergence, visual rating, scale 0 (no effect) to 100 (complete control)
In short: as §3

wheat = assay: Test B postemergence herbicide test; assay type: in vivo, Triticum aestivum; set-up: key to Wheat plant response rating: 0 = no effect, 100 = complete control; conditions: postemergence, visual rating, scale 0 (no effect) to 100 (complete control)
In short: as §4

morningglory [7] = assay: Test B pre-/postemergence herbicide test; assay type: in vivo, Ipomoea coccinea; conditions: for Morningglory plant response rating: postemergence, visual rating, scale 0 (no effect) to 100 (complete control)
In short: (§5)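 Response was scored visually 13 to 15 days after treatment against untreated greenhouse controls, 0 meaning no effect and 100 complete control. Formulations (solvent mixture plus surfactant) went onto soil after planting, onto foliage of 1- to 4-leaf plants, and onto 2-leaf plants in a flooded paddy set including rice and barnyardgrass.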

barnyardgrass [8] = assay: Test B pre-/postemergence herbicide test; assay type: in vivo, Echinochloa crus-galli; conditions: for Barnyardgrass plant response rating: postemergence, visual rating, scale 0 (no effect) to 100 (complete control)
In short: as §5

Surinam grass = assay: Test B pre-/postemergence herbicide test; assay type: in vivo, Urochloa decumbens; conditions: for Surinam Grass plant response rating: postemergence, visual rating, scale 0 (no effect) to 100 (complete control)
In short: as §3

morningglory [9] = assay: Test A pre-/postemergence herbicide test; assay type: in vivo, Ipomoea spp.
In short: as §2

[10] = system: small flower umbrella sedge; assay: Test B flooded paddy test; assay type: in vivo, Cyperus difformis; conditions: 1000 g ai/ha, visual rating, scale 0 to 100 (0 no effect, 100 complete control), 13 to 15 days
In short: as §1

blackgrass = assay: Test B postemergence herbicide test; assay type: in vivo, Alopecurus myosuroides; conditions: postemergence, visual rating, scale 0 (no effect) to 100 (complete control)
In short: as §1

ducksalad = assay: Test B flooded paddy test; assay type: in vivo, Heteranthera limosa; conditions: 1000 g ai/ha, visual rating, scale 0 to 100 (0 no effect, 100 complete control), 13 to 15 days
In short: as §1

corn = assay: Test B pre-/postemergence herbicide test; assay type: in vivo, Zea mays; conditions: for Corn plant response rating: postemergence, visual rating, scale 0 (no effect) to 100 (complete control)
In short: as §3

giant foxtail [11] = assay: Test B pre-/postemergence herbicide test; assay type: in vivo, Setaria faberi; conditions: for Foxtail, Giant plant response rating: postemergence, visual rating, scale 0 (no effect) to 100 (complete control)
In short: as §3

velvetleaf [12] = assay: Test B pre-/postemergence herbicide test; assay type: in vivo, Abutilon theophrasti; conditions: for Velvetleaf plant response rating: postemergence, visual rating, scale 0 (no effect) to 100 (complete control)
In short: as §3

rice [13] = assay: Test B flooded paddy test; assay type: in vivo, Oryza sativa; conditions: 1000 g ai/ha, visual rating, scale 0 to 100 (0 no effect, 100 complete control), 13 to 15 days
In short: as §4

rice [14] = assay: Test B pre-/postemergence herbicide test; assay type: in vivo, Oryza sativa; conditions: preemergence
In short: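 Evaluation is visual, comparing treated with control plants on a scale where 0 means no effect and 100 means full control. Treatments were preemergence, or postemergence on seedlings 2–18 cm tall, and held 13–15 days in the greenhouse.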

cocklebur = assay: Test B pre-/postemergence herbicide test; assay type: in vivo, Xanthium strumarium; conditions: for Cocklebur plant response rating: postemergence, visual rating, scale 0 (no effect) to 100 (complete control)
In short: as §5

[15] = Postemergence, 500 g ai/ha, 0 to 100 scale, 0 no effect, 100 complete control
[16] = Postemergence, 2000 g ai/ha, 0 to 100 scale, 0 no effect, 100 complete control
[17] = Preemergence, 2000 g ai/ha, visual rating, 0 to 100 scale (0 no effect, 100 complete control)
[18] = preemergence, 500 g ai/ha, visual injury, 0 to 100 scale (0 no effect, 100 complete control)
[19] = 125 g ai/ha, 0 = no effect, 100 = complete control, preemergence
[20] = 500 g ai/ha, visual rating 0-100, 0 no effect, 100 complete control, preemergence

`Cc1nn(C(C)(C)C)cc1C(=O)Nc1cccc(OC(C)C)c1` [Compound 189] was tested, and the “Barnyardgrass plant response rating” value (barnyardgrass [1]) was 60, the “Foxtail, Giant plant response rating” value (giant foxtail [2]; [15]) was 0 and the “Plant response rating, Foxtail, Giant” value (giant foxtail [2]; [16]) was 0. The “Foxtail, Giant plant response rating” value (giant foxtail [2]; [17]) was 20, the “Foxtail, Giant plant response rating” value (giant foxtail [2]; [18]) was 5 and the “Crabgrass, Large plant response rating” value (large crabgrass [3]; [15]) was 10. The “Plant response rating, Crabgrass, Large” value (large crabgrass [3]; [16]) was 10, the “Crabgrass, Large plant response rating” value (large crabgrass [3]; [17]) was 75 and the “Crabgrass, Large plant response rating” value (large crabgrass [3]; [18]) was 55. For the same molecule, the “Barnyardgrass plant response rating” value (barnyardgrass [4]; [15]) was 0, the “Plant response rating, Barnyardgrass” value (barnyardgrass [4]; [16]) was 10 and the “Barnyardgrass plant response rating” value (barnyardgrass [4]; [17]) was 65. For the same molecule, the “Barnyardgrass plant response rating” value (barnyardgrass [4]; [18]) was 35, the “Pigweed plant response rating” value (redroot pigweed; [15]) was 30 and the “Plant response rating, Pigweed” value (redroot pigweed; [16]) was 45. For the same molecule, the “Pigweed plant response rating” value (redroot pigweed; [17]) was 40, the “Pigweed plant response rating” value (redroot pigweed; [18]) was 25 and the “Pigweed plant response rating (0 to 100 scale)” value (pigweed; [19]) was 90. The “Plant response rating, Pigweed” value (pigweed; [20]) was 100, the “Pigweed plant response rating” value (pigweed; 125 g ai/ha) was 30 and the “Pigweed plant response rating” value (pigweed; 500 g ai/ha) was 60. For the same molecule, the “Oat, Wild plant response rating” value (wild oat; 125 g ai/ha) was 10, the “Oat, Wild plant response rating” value (wild oat; 500 g ai/ha) was 10 and the “Velvetleaf plant response rating” value (velvetleaf [5]; [15]) was 5. The “Plant response rating, Velvetleaf” value (velvetleaf [5]; [16]) was 5, the “Velvetleaf plant response rating” value (velvetleaf [5]; [17]) was 25 and the “Velvetleaf plant response rating” value (velvetleaf [5]; [18]) was 10. The “Crabgrass, Large plant response rating (0 to 100 scale)” value (large crabgrass [6]; [19]) was 30, the “Plant response rating, Crabgrass, Large” value (large crabgrass [6]; [20]) was 60 and the “Crabgrass, Large plant response rating” value (large crabgrass [6]; 125 g ai/ha) was 10. For the same molecule, the “Crabgrass, Large plant response rating” value (large crabgrass [6]; 500 g ai/ha) was 20, the “Lambsquarters plant response rating (0 to 100 scale)” value (lambsquarters; [19]) was 0 and the “Plant response rating, Lambsquarters” value (lambsquarters; [20]) was 30. For the same molecule, the “Lambsquarters plant response rating” value (lambsquarters; 125 g ai/ha) was 50, the “Lambsquarters plant response rating” value (lambsquarters; 500 g ai/ha) was 50 and the “Wheat plant response rating” value (wheat; 125 g ai/ha) was 0. For the same molecule, the “Wheat plant response rating” value (wheat; 500 g ai/ha) was 0, the “Plant response rating, Morningglory” value (morningglory [7]; [20]) was 20 and the “Morningglory plant response rating” value (morningglory [7]; 125 g ai/ha) was 80. The “Morningglory plant response rating” value (morningglory [7]; 500 g ai/ha) was 90, the “Barnyardgrass plant response rating (0 to 100 scale)” value (barnyardgrass [8]; [19]) was 0 and the “Plant response rating, Barnyardgrass” value (barnyardgrass [8]; [20]) was 30. For the same molecule, the “Barnyardgrass plant response rating” value (barnyardgrass [8]; 125 g ai/ha) was 0, the “Barnyardgrass plant response rating” value (barnyardgrass [8]; 500 g ai/ha) was 10 and the “Surinam Grass plant response rating (0 to 100 scale)” value (Surinam grass; [19]) was 0. For the same molecule, the “Plant response rating, Surinam Grass” value (Surinam grass; [20]) was 20, the “Surinam Grass plant response rating” value (Surinam grass; 125 g ai/ha) was 10 and the “Surinam Grass plant response rating” value (Surinam grass; 500 g ai/ha) was 20. For the same molecule, the “Morningglory plant response rating” value (morningglory [9]; [15]) was 10, the “Plant response rating, Morningglory” value (morningglory [9]; [16]) was 10 and the “Morningglory plant response rating” value (morningglory [9]; [17]) was 30. The “Morningglory plant response rating” value (morningglory [9]; [18]) was 15, the “Sedge, Umbrella plant response rating” value [10] was 70 and the “Blackgrass plant response rating” value (blackgrass; 125 g ai/ha) was 0. The “Blackgrass plant response rating” value (blackgrass; 500 g ai/ha) was 0, the “Ducksalad plant response rating” value (ducksalad) was 70 and the “Corn plant response rating (0 to 100 scale)” value (corn; [19]) was 0. For the same molecule, the “Plant response rating, Corn” value (corn; [20]) was 0, the “Corn plant response rating” value (corn; 125 g ai/ha) was 10 and the “Corn plant response rating” value (corn; 500 g ai/ha) was 10. The “Foxtail, Giant plant response rating (0 to 100 scale)” value (giant foxtail [11]; [19]) was 0, the “Plant response rating, Foxtail, Giant” value (giant foxtail [11]; [20]) was 10 and the “Foxtail, Giant plant response rating” value (giant foxtail [11]; 125 g ai/ha) was 0. The “Foxtail, Giant plant response rating” value (giant foxtail [11]; 500 g ai/ha) was 10, the “Velvetleaf plant response rating (0 to 100 scale)” value (velvetleaf [12]; [19]) was 0 and the “Plant response rating, Velvetleaf” value (velvetleaf [12]; [20]) was 20. The “Velvetleaf plant response rating” value (velvetleaf [12]; 125 g ai/ha) was 20, the “Velvetleaf plant response rating” value (velvetleaf [12]; 500 g ai/ha) was 20 and the “Rice plant response rating” value (rice [13]) was 40. For the same molecule, the “Rice plant response rating (0 to 100 scale)” value (rice [14]; 125 g ai/ha, 0 = no effect, 100 = complete control) was 0, the “Plant response rating, Rice” value (rice [14]; 500 g ai/ha, visual rating 0-100, 0 no effect, 100 complete control) was 50 and the “Cocklebur plant response rating (0 to 100 scale)” value (cocklebur; [19]) was 0. The “Plant response rating, Cocklebur” value (cocklebur; [20]) was 0, the “Cocklebur plant response rating” value (cocklebur; 125 g ai/ha) was 0 and the “Cocklebur plant response rating” value (cocklebur; 500 g ai/ha) was 10.
